Source: ChEMBL document CHEMBL1146588, “Ancistrotanzanine A, the first 5,3'-coupled naphthylisoquinoline alkaloid, and two further, 5,8'-linked related compounds from the newly described species Ancistrocladus tanzaniensis” (J Nat Prod, 2003)
Converted amounts (≈) assume the structure as drawn.

Columns and labels:
[1] = tested on: Trypanosoma brucei rhodesiense; assay: Antitrypanosomal activity against Trypanosoma brucei rhodesiense; assay type: functional, organism-based
Trypanosoma cruzi = assay: Antitrypanosomal activity against Trypanosoma cruzi; assay type: functional, organism-based
Plasmodium falciparum [2] = assay: Antimalarial activity against Plasmodium falciparum K1; assay type: functional, organism-based
Plasmodium falciparum [3] = assay: Antimalarial activity against Plasmodium falciparum 3D7; assay type: functional, organism-based
Leishmania donovani = assay: Antileishmanial activity against Leishmania donovani; assay type: functional, organism-based
[4] = Cytotoxicity against rat L6 cells; assay type: cell-based; settings: read-out: MIC

IC50 [1] [µg/mL] | IC50 (Trypanosoma cruzi) [µg/mL] | IC50 (Plasmodium falciparum [2]) [µg/mL] | IC50 (Plasmodium falciparum [3]) [µg/mL] | IC50 (Leishmania donovani) [µg/mL] | SMILES | MCC [4] [µg/mL]
0.7 (≈ 1.67 µM) | 1.5 (≈ 3.58 µM) | 0.3 (≈ 0.715 µM) | 5 (≈ 11.9 µM) | 1.6 (≈ 3.81 µM) | COc1cc(OC)c(-c2ccc(OC)c3c(OC)cc(C)cc23)c2c1C(C)=N[C@@H](C)C2 [ANCISTROEALAINE A] | 8.1
0.7 (≈ 1.73 µM) | 1.7 (≈ 4.19 µM) | 0.3 (≈ 0.74 µM) |  | 1.8 (≈ 4.44 µM) | COc1cc(OC)c(-c2c(C)cc3cccc(OC)c3c2O)c2c1C(C)=N[C@@H](C)C2 [ANCISTROTANZANINE A] | 6.4
2.1 (≈ 4.98 µM) | 17.8 (≈ 42.2 µM) | 0.5 (≈ 1.19 µM) | 14 (≈ 33.2 µM) | > 10 | COc1cc(OC)c2c(c1-c1ccc(OC)c3c(OC)cc(C)cc13)C[C@H](C)N[C@H]2C [ANCISTROTECTORILINE A] | 6.5
 | 0.42 (≈ 1.61 µM) |  |  |  | O=C(Cn1ccnc1[N+](=O)[O-])NCc1ccccc1 [BENZNIDAZOLE] | 
 |  |  |  | 0.305 (≈ 0.748 µM) | CCCCCCCCCCCCCCCCOP(=O)([O-])OCC[N+](C)(C)C [MILTEFOSINE] | 

SMILES | IC50 [1] [µg/mL] | IC50 (Trypanosoma cruzi) [µg/mL] | IC50 (Plasmodium falciparum [2]) [µg/mL] | IC50 (Plasmodium falciparum [3]) [µg/mL] | IC50 (Leishmania donovani) [µg/mL] | MCC [4] [µg/mL]
Nc1nc(N)nc(Nc2ccc([As]3SCC(CO)S3)cc2)n1 (stereo not given) [MELARSOPROL] | 0.001 |  |  |  |  | 
